Assay results as given in US20210353648A1, “GRAPIPRANT UNIT DOSAGE FORMS” (Arrys Therapeutics, Inc., priority 2018, published 2021).
Like-named read-outs stand apart in the source and are kept apart here.

Experiments:
Assay type in all cases: in vivo, human
[1] = Phase 1 crossover food effect study of 375 mg grapiprant tablets: pharmacokinetics; settings: for AUC(0-inf) / Cmax / AUC(0-t) / half-life / Tmax: human, serum, po, 375 mg, single oral dose, healthy subjects (N = 12); for AUC(0-inf) / Cmax / AUC(0-t) / half-life: arithmetic mean; for AUC(0-t): read-out: AUC(0-tlast); for half-life: read-out: t½ (converted); for Tmax: median
Experimental: This study was a randomized, open-label, single dose, 2-period crossover design. Each subject participated in 2 study periods. In each study period, subjects received a dose of 375 mg administered as 3×125 mg tablets of grapiprant under fasted or fed conditions in a crossover manner according to a randomized dosing sequence. The fed condition consisted of a standardized high-fat meal. Following an initial screening period of no longer than 28 days, 12 eligible subjects were to be randomized to the 2 treatment sequences and 2 treatment period sessions as shown in Table 6-1.
In each study period, subjects received 375 mg grapiprant (as 3×125 mg tablets) under either fed or fasted conditions. Each subject received 2 single doses: Day 1 and Day 8.
Blood samples were collected at the following times: 0 (just prior to dosing), 0.5, 1, 1.5, 2, 2.5, 3, 4, 6, 8, 12, 16, 24 and 48 hours following each dosing. The primary pharmacokinetic endpoints of the study were AUC(0-tlast) (area under the serum concentration-time curve from time 0 to the time of the last quantifiable concentration), AUC(0-inf) (AUC from time 0 to infinite time), and Cmax (maximum observed serum concentration) of serum grapiprant. The secondary pharmacokinetic endpoints of the study were Tmax (the time to Cmax) and t½ (terminal elimination half-life), as the data permitted.
Log-transformed AUC(0-inf), AUC(0-tlast) and Cmax were each analyzed using a mixed effects model containing sequence, treatment (fed and fasted), and period as the fixed effects and subject (within sequence) as the random effect. The SAS procedure PROC MIXED was used for the analysis. Compound symmetry was assumed, and Restricted Maximum Likelihood Estimates (REML) were utilized.
For AUC(0-inf), AUC(0-tlast) and Cmax, on the natural log scale, estimates of the adjusted mean difference between grapiprant tablet under fed condition (test) and grapiprant under fasted condition (reference) and their corresponding 90% confidence intervals were calculated.
The anti-logs (exponent) of the difference and confidence interval were taken to estimate the mean ratio (relative bioavailability) and its corresponding 90% confidence interval. Vital signs, adverse events, ECG parameters, and safety laboratory values were summarized with descriptive statistics.

[2] = tested on: serum bone-specific alkaline phosphatase; test: Multiple ascending dose study: bone marker, percent change from baseline; settings: for change from baseline in bone-specific alkaline phosphatase (least squares mean): 300 mg BID
Source text: (§1) Each bone marker (serum bone-specific alkaline phosphatase and osteocalcin, urinary N-terminal telopeptide of type I collagen) is expressed as percentage change from baseline and analyzed. To assess influence of potential outliers on the bone marker data analyses, the following analysis can be conducted first. Potential outliers are identified as outside an interval consistent with a normal distribution defined as (median±3.5 standard deviations [SD]) for each dosing regimen and day combination. The SD is a pooled estimate across all dosing regimen and day combinations, each estimated by the scaled inter-quartile range 0.75 (Q75-Q25). Explicitly, for each dosing regimen and day combination, its SD denoted by SDi is estimated by its scaled inter-quartile range 0.75 (Q75-Q25). The overall SD is estimated as
(§2) Then, the (percent change from baseline) values are analyzed with a mixed effect model, with treatment (dosing regimen), day, and treatment-by-day interaction effects considered fixed and subject considered random. Baseline value is not included as a covariate. The model is fit separately to each group of cohorts (Cohorts 1-3 and 5). For Cohorts 1-3, days of interest are day 7 and day 14. For Cohort 5, days of interest are day 10 and day 17. For each group of cohorts, compound symmetry is assumed, and Restricted Maximum Likelihood Estimates are used. The least squares means (LSMeans) and 95% confidence intervals (CI) are obtained for each treatment and day combination. Within each treatment, LSMean percent changes from baseline at each post-dosing day (i.e., day 7 and day 14 for Cohorts 1-3, and day 10 and day 17 for Cohort 5) are obtained, along with their 95% CIs. In addition, for each post-dosing day, differences of the LSMean percent changes from baseline between active dosed regimen and placebo are obtained. The p-values comparing these differences from placebo are obtained using t-tests. No adjustments are made for multiple comparisons. […] If outliers are identified, additional mixed model analyses using the same mixed effect modeling as detailed above are to be conducted excluding the outliers. […] Individual percent-change-from-baseline profile versus time plots are plotted by treatment regimen.

[3] = tested on: urinary N-terminal telopeptide of type I collagen; test: as above
Source text: as §1, §2

osteocalcin = test: as above
Source text: as §1, §2

[4] = 375 mg tablets, adjusted geometric means, N = 12
[5] = 375 mg tablets, standard high-fat meal compared to fasted
[6] = 375 mg tablet-fed (high-fat meal)
[7] = 50 mg, 14-day oral administration, healthy adults, post-dosing day 7
[8] = 50 mg, 14-day oral administration, healthy adults, post-dosing day 14
[9] = 150 mg, 14-day oral administration, healthy adults, post-dosing day 7
[10] = 150 mg, 14-day oral administration, healthy adults, post-dosing day 14
[11] = 250 mg, 17-day oral administration, elderly with minor renal impairment, post-dosing day 10
[12] = 250 mg, 17-day oral administration, elderly with minor renal impairment, post-dosing day 17
[13] = 300 mg, 14-day oral administration, healthy adults, post-dosing day 7
[14] = 300 mg, 14-day oral administration, healthy adults, post-dosing day 14
[15] = elderly subjects, 250 mg BID versus placebo

CCc1nc2c(C)nc(C)cc2n1-c1ccc(CCNC(=O)NS(=O)(=O)c2ccc(C)cc2)cc1 [Grapiprant, N-((4-(2-ethyl-4,6-dimethyl-1H-imidazo[4,5-c]pyridin-1-yl)phenethyl)carbamoyl)-4-methylbenzenesulfonamide]
Geometric Mean Ratio (fed/fasted) of AUC(0-inf) [1, 4]: 87.48%
Geometric Mean Ratio (fed/fasted) of AUC(0-tlast) [1, 4]: 87.42%
Geometric Mean Ratio (fed/fasted) of Cmax [1, 4]: 64.16%
decrease in AUC [1, 5]: 13%
decrease in Cmax [1, 5]: 36%
AUC(0-inf) ([1]; 375 mg tablet-fasted): 29100 ng·h/mL
Cmax ([1]; 375 mg tablet-fasted): 8990 ng/mL
AUC(0-t) ([1]; 375 mg tablet-fasted): 28900 ng·h/mL
half-life ([1]; 375 mg tablet-fasted): 9.48 h
Tmax ([1]; 375 mg tablet-fasted): 1 h
AUC(0-inf) [1, 6]: 24800 ng·h/mL
Cmax [1, 6]: 5840 ng/mL
AUC(0-t) [1, 6]: 24600 ng·h/mL
half-life [1, 6]: 8.52 h
Tmax [1, 6]: 4 h
LS Mean Difference in bone-specific alkaline phosphatase [2, 7]: about −8.62%
LS Mean Difference in bone-specific alkaline phosphatase [2, 8]: about 7.16%
LS Mean Difference in bone-specific alkaline phosphatase [2, 9]: about 4.76%
LS Mean Difference in bone-specific alkaline phosphatase [2, 10]: about 1.23%
LS Mean Difference in bone-specific alkaline phosphatase [2, 11]: about −1.75%
LS Mean Difference in bone-specific alkaline phosphatase [2, 12]: about 3.88%
change from baseline in bone-specific alkaline phosphatase (least squares mean) ([2]; Day 7, healthy subjects, placebo 4.70%, p=0.020): 20.80%
change from baseline in bone-specific alkaline phosphatase (least squares mean) ([2]; Day 14, healthy subjects, placebo −5.36%, p=0.006): 14.36%
LS Mean Difference (of percent change from baseline) in bone-specific alkaline phosphatase [2, 13]: about 16.10%
LS Mean Difference in bone-specific alkaline phosphatase [2, 14]: about 19.72%
bone marker difference between treatment groups [2, 15]: no statistically significant differences
LS Mean change in N-telopeptide of type I collagen [3, 7]: about 14.77%
LS Mean change in N-telopeptide of type I collagen [3, 8]: about −23.50%
change from baseline in urine N-telopeptide (least squares mean) ([3]; 150 mg BID, Day 14, healthy subjects, placebo 34.74%, p=0.050): −3.97%
LS Mean change in N-telopeptide of type I collagen [3, 9]: about −9.78%
LS Mean change in N-telopeptide of type I collagen [3, 10]: about −38.72%
LS Mean change in N-telopeptide of type I collagen [3, 11]: about −9.62%
LS Mean change in N-telopeptide of type I collagen [3, 12]: about −16.76%
LS Mean change in N-telopeptide of type I collagen [3, 13]: about 12.69%
LS Mean change in N-telopeptide of type I collagen [3, 14]: about −21.33%
bone marker difference between treatment groups [3, 15]: no statistically significant differences
change from baseline in osteocalcin (least squares mean) (osteocalcin; 50 mg BID, Day 7, healthy subjects, placebo 39.30%, p=0.023): 1.40%
LS Mean change in blood osteocalcin (osteocalcin; [7]): about −37.90%
LS Mean change in blood osteocalcin (osteocalcin; [8]): about −13.58%
LS Mean change in blood osteocalcin (osteocalcin; [9]): about −31.02%
LS Mean change in blood osteocalcin (osteocalcin; [10]): about −10.29%
LS Mean change in blood osteocalcin (osteocalcin; [11]): about −5.91%
LS Mean change in blood osteocalcin (osteocalcin; [12]): about −3.96%
change from baseline in osteocalcin (least squares mean) (osteocalcin; 300 mg BID, Day 14, healthy subjects, placebo 47.84%, p=0.045): 14.37%
LS Mean change in blood osteocalcin (osteocalcin; [13]): about −10.30%
LS Mean change in blood osteocalcin (osteocalcin; [14]): about −33.47%
bone marker difference between treatment groups (osteocalcin; [15]): no statistically significant differences
